# Assays:
# Assay in all cases: In vitro antibacterial evaluation: minimum inhibitory concentration (MIC), broth dilution method
# Format in all cases: cell-based
# Enterococcus sp. = settings: 18 hours at 35° C.
# Experimental: (§1) The minimum inhibitory concentration (MIC), the lowest concentration of the antibiotic which inhibits growth of the test organism, is determined by the broth dilution method using Muller-Hinton II […] (Baltimore Biological Laboratories) following the recommendations of the National Committee for Clinical Laboratory Standards [Methods for dilution antimicrobial susceptibility tests for bacteria that grow aerobically, approved standard M7-A2, National Committee for Clinical Laboratory Standards, Villanova, Pa].
# (§2) An inoculum level of 5×10^5 CFU/mL, and a range of antibiotic concentrations (64-0.06 μg/mL) is used. […] The test organisms include a spectrum of Gram-positive bacteria comprised of Staphylococcus sp., Streptococcus sp. and Enterococcus sp. These organisms include recent clinical isolates that are resistant to methicillin, penicillin and/or vancomycin.
# Escherichia coli = settings: 18 hours at 35° C.
# Experimental: as §1, §2
# Staphylococcus sp. = system: Staphylococcus sp.
# Experimental: as §1, §2
# Streptococcus sp. = settings: 18 hours at 35° C.
# Experimental: as §1, §2
# [1] = broth dilution, inoculum 5×10^5 CFU/mL
# [2] = broth dilution, 5×10^5 CFU/mL, 18 hours at 35° C.
smiles,measurement,setting,value
"CC(c1ccccc1)C1NC(=O)CNC(=O)C(CO)NC(=O)C(C(O)C2CNC(=N)N2C2OC(CO)C(O)C(O)C2O)NC(=O)C(C(O)C2CNC(=N)N2)NC(=O)C(Cc2ccc(OC3OC(CO)C(OC4OC(COCC=C(c5ccccc5)c5ccccc5)C(O)C(O)C4O)C(O)C3O)cc2)NC1=O (stereo not drawn) [Example 241, Cyclo[glycyl-β-methylphenylalanyl-O-[4-O-[6-O-[3,3-diphenylprop-2-en-1-yl)hexopyranosyl]-hexopyranosyl]tyrosyl-3-(2-iminoimidazolidin-4-yl)seryl-3-(3-hexopyranosyl-2-iminoimidazolidin-4-yl)serylseryl]]",MIC Enterococcus avium (GC 4558),Enterococcus sp.; Enterococcus avium (GC 4558),4 µg/mL
same,MIC Enterococcus faecalis (ATCC 29212),Enterococcus sp.; Enterococcus faecalis (ATCC 29212),4 µg/mL
same,MIC Enterococcus faecalis (GC 2242),Enterococcus sp.; Enterococcus faecalis (GC 2242),4 µg/mL
same,MIC Enterococcus faecalis (GC 2691),Enterococcus sp.; Enterococcus faecalis (GC 2691),4 µg/mL
same,MIC Enterococcus faecalis (GC 3059),Enterococcus sp.; Enterococcus faecalis (GC 3059),2 µg/mL
same,MIC Enterococcus faecalis (GC 4552),Enterococcus sp.; Enterococcus faecalis (GC 4552),4 µg/mL
same,MIC Enterococcus faecalis (GC 4553),Enterococcus sp.; Enterococcus faecalis (GC 4553),4 µg/mL
same,MIC Enterococcus faecalis (GC 4554),Enterococcus sp.; Enterococcus faecalis (GC 4554),4 µg/mL
same,MIC Enterococcus faecalis (GC 6189),Enterococcus sp.; Enterococcus faecalis (GC 6189),2 µg/mL
same,MIC Enterococcus faecium (GC 2243),Enterococcus sp.; Enterococcus faecium (GC 2243),4 µg/mL
same,MIC Enterococcus faecium (GC 4556),Enterococcus sp.; Enterococcus faecium (GC 4556),4 µg/mL
same,MIC Enterococcus faecium (GC 4557),Enterococcus sp.; Enterococcus faecium (GC 4557),2 µg/mL
same,MIC Enterococcus faecalis (GC 2242),Enterococcus sp.; [1],4 µg/mL
same,MIC Enterococcus faecalis (GC 2691),Enterococcus sp.; [1],4 µg/mL
same,MIC Enterococcus faecalis (GC 3059),Enterococcus sp.; [1],2 µg/mL
same,MIC Escherichia coli (ATCC 25922),Escherichia coli; Escherichia coli (ATCC 25922),>64 µg/mL
same,MIC Escherichia coli (GC 4559),Escherichia coli; Escherichia coli (GC 4559),>64 µg/mL
same,MIC Escherichia coli (GC 4560),Escherichia coli; Escherichia coli (GC 4560),2 µg/mL
same,MIC Coagulase Negative Staphylococcus (GC 4547),"Staphylococcus sp.; Coagulase Negative Staphylococcus (GC 4547), 18 hours at 35° C.",2 µg/mL
same,MIC Coagulase Negative Staphylococcus (GC 4548),"Staphylococcus sp.; Coagulase Negative Staphylococcus (GC 4548), 18 hours at 35° C.",1 µg/mL
same,MIC Coagulase Negative Staphylococcus (GC 4549),"Staphylococcus sp.; Coagulase Negative Staphylococcus (GC 4549), 18 hours at 35° C.",2 µg/mL
same,MIC Coagulase Negative Staphylococcus (GC 4551),"Staphylococcus sp.; Coagulase Negative Staphylococcus (GC 4551), 18 hours at 35° C.",4 µg/mL
same,MIC Coagulase Negative Staphylococcus (GC 6257),"Staphylococcus sp.; Coagulase Negative Staphylococcus (GC 6257), 18 hours at 35° C.",2 µg/mL
same,MIC Staphylococcus aureus (ATCC 29213),"Staphylococcus sp.; Staphylococcus aureus (ATCC 29213), 18 hours at 35° C.",2 µg/mL
same,MIC Staphylococcus aureus (GC 1131),"Staphylococcus sp.; Staphylococcus aureus (GC 1131), 18 hours at 35° C.",2 µg/mL
same,MIC Staphylococcus aureus (GC 3051),"Staphylococcus sp.; Staphylococcus aureus (GC 3051), 18 hours at 35° C.",2 µg/mL
same,MIC Staphylococcus aureus (GC 3053),"Staphylococcus sp.; Staphylococcus aureus (GC 3053), 18 hours at 35° C.",2 µg/mL
same,MIC Staphylococcus aureus (GC 4541),"Staphylococcus sp.; Staphylococcus aureus (GC 4541), 18 hours at 35° C.",2 µg/mL
same,MIC Staphylococcus aureus (GC 4542),"Staphylococcus sp.; Staphylococcus aureus (GC 4542), 18 hours at 35° C.",2 µg/mL
same,MIC Staphylococcus aureus (GC 4544),"Staphylococcus sp.; Staphylococcus aureus (GC 4544), 18 hours at 35° C.",2 µg/mL
same,MIC Staphylococcus aureus (GC 4545),"Staphylococcus sp.; Staphylococcus aureus (GC 4545), 18 hours at 35° C.",2 µg/mL
same,MIC Staphylococcus aureus-SMITH (GC 4543),"Staphylococcus sp.; Staphylococcus aureus-SMITH (GC 4543), 18 hours at 35° C.",2 µg/mL
same,MIC Staphylococcus haemolyticus (GC 4546),"Staphylococcus sp.; Staphylococcus haemolyticus (GC 4546), 18 hours at 35° C.",2 µg/mL
same,MIC Streptococcus agalactiae (GC 4564),Streptococcus sp.; Streptococcus agalactiae (GC 4564),<0.06 µg/mL
same,MIC Streptococcus pneumoniae (ATCC 6301),Streptococcus sp.; Streptococcus pneumoniae (ATCC 6301),<0.06 µg/mL
same,MIC Streptococcus pneumoniae (GC 1894),Streptococcus sp.; Streptococcus pneumoniae (GC 1894),<0.06 µg/mL
same,MIC Streptococcus pneumoniae (GC 4565),Streptococcus sp.; Streptococcus pneumoniae (GC 4565),<0.06 µg/mL
same,MIC Streptococcus pyogenes (GC 4563),Streptococcus sp.; Streptococcus pyogenes (GC 4563),<0.06 µg/mL
same,MIC Streptococcus agalactiae (GC 4564),Streptococcus sp.; [1],<0.06 µg/mL
same,MIC Streptococcus pneumoniae (ATCC 6301),Streptococcus sp.; [1],<0.06 µg/mL
same,MIC Streptococcus pneumoniae (GC 1894),Streptococcus sp.; [1],<0.06 µg/mL
same,MIC Streptococcus pneumoniae (GC 4565),Streptococcus sp.; [1],<0.06 µg/mL
same,MIC Streptococcus pyogenes (GC 4563),Streptococcus sp.; [1],<0.06 µg/mL
CC(c1ccccc1)C1NC(=O)CNC(=O)C(CO)NC(=O)C(C(O)C2CNC(=N)N2C2OC(CO)C(O)C(O)C2O)NC(=O)C(C(O)C2CNC(=N)N2)NC(=O)C(Cc2ccc(OC3OC(CO)C(OC4OC5COC(CC67CC8CC(CC(C8)C6)C7)OC5C(O)C4O)C(O)C3O)cc2)NC1=O (stereo not drawn) [Example 129],MIC Enterococccus avium (GC 4558),"Enterococcus sp.; broth dilution, 5×10^5 CFU/mL",2 µg/mL
same,MIC Enterococccus faecalis (ATCC 29212),"Enterococcus sp.; broth dilution, 5×10^5 CFU/mL",2 µg/mL
same,MIC Enterococccus faecalis (GC 2691),"Enterococcus sp.; broth dilution, 5×10^5 CFU/mL",2 µg/mL
same,MIC Enterococccus faecalis (GC 3059),"Enterococcus sp.; broth dilution, 5×10^5 CFU/mL",2 µg/mL
same,MIC Enterococccus faecalis (GC 4552),"Enterococcus sp.; broth dilution, 5×10^5 CFU/mL",2 µg/mL
same,MIC Enterococccus faecalis (GC 4553),"Enterococcus sp.; broth dilution, 5×10^5 CFU/mL",2 µg/mL
same,MIC Enterococccus faecalis (GC 4554),"Enterococcus sp.; broth dilution, 5×10^5 CFU/mL",2 µg/mL
same,MIC Enterococccus faecalis (GC 6189),"Enterococcus sp.; broth dilution, 5×10^5 CFU/mL",2 µg/mL
same,MIC Enterococccus faecium (GC 2243),"Enterococcus sp.; broth dilution, 5×10^5 CFU/mL",2 µg/mL
same,MIC Enterococccus faecium (GC 4556),"Enterococcus sp.; broth dilution, 5×10^5 CFU/mL",2 µg/mL
same,MIC Enterococccus faecium (GC 4557),"Enterococcus sp.; broth dilution, 5×10^5 CFU/mL",2 µg/mL
same,MIC Enterococcus faecalis (GC 2242),"Enterococcus sp.; broth dilution, 5×10^5 CFU/mL",2 µg/mL
same,MIC Escherichia coli (ATCC 25922),Escherichia coli; 5×10^5 CFU/mL,32 µg/mL
same,MIC Escherichia coli (GC 4559),Escherichia coli; 5×10^5 CFU/mL,32 µg/mL
same,MIC Escherichia coli (GC 4560),Escherichia coli; 5×10^5 CFU/mL,2 µg/mL
same,MIC Coagulase Negative Staphylococcus (GC 4547),Staphylococcus sp.; [2],2 µg/mL
same,MIC Coagulase Negative Staphylococcus (GC 4548),Staphylococcus sp.; [2],1 µg/mL
same,MIC Coagulase Negative Staphylococcus (GC 4549),Staphylococcus sp.; [2],1 µg/mL
same,MIC Coagulase Negative Staphylococcus (GC 4551),Staphylococcus sp.; [2],4 µg/mL
same,MIC Coagulase Negative Staphylococcus (GC 6257),Staphylococcus sp.; [2],1 µg/mL
same,MIC Staphylococcus aureus-SMITH (GC 4543),Staphylococcus sp.; [2],2 µg/mL
same,MIC Staphylococcus haemolyticus (GC 4546),Staphylococcus sp.; [2],2 µg/mL
same,MIC Staphylococcus aureus (ATCC 29213),Staphylococcus sp.; strain ATCC 29213,4 µg/mL
same,MIC Staphylococcus aureus (ATCC 29213),"Staphylococcus sp.; strain ATCC 29213, broth dilution, 18 hours at 35° C.",4 µg/mL
same,MIC Staphylococcus aureus (GC 1131),Staphylococcus sp.; strain GC 1131,2 µg/mL
same,MIC Staphylococcus aureus (GC 1131),"Staphylococcus sp.; strain GC 1131, broth dilution, 18 hours at 35° C.",2 µg/mL
same,MIC Staphylococcus aureus (GC 3051),Staphylococcus sp.; strain GC 3051,2 µg/mL
same,MIC Staphylococcus aureus (GC 3051),"Staphylococcus sp.; strain GC 3051, broth dilution, 18 hours at 35° C.",2 µg/mL
same,MIC Staphylococcus aureus (GC 3053),Staphylococcus sp.; strain GC 3053,2 µg/mL
same,MIC Staphylococcus aureus (GC 3053),"Staphylococcus sp.; strain GC 3053, broth dilution, 18 hours at 35° C.",2 µg/mL
same,MIC Staphylococcus aureus (GC 4541),Staphylococcus sp.; strain GC 4541,2 µg/mL
same,MIC Staphylococcus aureus (GC 4541),"Staphylococcus sp.; strain GC 4541, broth dilution, 18 hours at 35° C.",2 µg/mL
same,MIC Staphylococcus aureus (GC 4542),Staphylococcus sp.; strain GC 4542,2 µg/mL
same,MIC Staphylococcus aureus (GC 4542),"Staphylococcus sp.; strain GC 4542, broth dilution, 18 hours at 35° C.",2 µg/mL
same,MIC Staphylococcus aureus-SMITH (GC 4543),"Staphylococcus sp.; strain GC 4543, broth dilution, 18 hours at 35° C.",2 µg/mL
same,MIC Staphylococcus aureus (GC 4544),Staphylococcus sp.; strain GC 4544,2 µg/mL
same,MIC Staphylococcus aureus (GC 4544),"Staphylococcus sp.; strain GC 4544, broth dilution, 18 hours at 35° C.",2 µg/mL
same,MIC Staphylococcus aureus (GC 4545),Staphylococcus sp.; strain GC 4545,2 µg/mL
same,MIC Staphylococcus aureus (GC 4545),"Staphylococcus sp.; strain GC 4545, broth dilution, 18 hours at 35° C.",2 µg/mL
same,MIC Staphylococcus haemolyticus (GC 4546),"Staphylococcus sp.; strain GC 4546, broth dilution, 18 hours at 35° C.",2 µg/mL
same,MIC Coagulase Negative Staphylococcus (GC 4547),"Staphylococcus sp.; strain GC 4547, broth dilution, 18 hours at 35° C.",2 µg/mL
same,MIC Coagulase Negative Staphylococcus (GC 4548),"Staphylococcus sp.; strain GC 4548, broth dilution, 18 hours at 35° C.",1 µg/mL
same,MIC Coagulase Negative Staphylococcus (GC 4549),"Staphylococcus sp.; strain GC 4549, broth dilution, 18 hours at 35° C.",1 µg/mL
same,MIC Coagulase Negative Staphylococcus (GC 4551),"Staphylococcus sp.; strain GC 4551, broth dilution, 18 hours at 35° C.",4 µg/mL
same,MIC Coagulase Negative Staphylococcus (GC 6257),"Staphylococcus sp.; strain GC 6257, broth dilution, 18 hours at 35° C.",1 µg/mL
same,MIC Streptococcus agalactiae (GC 4564),"Streptococcus sp.; broth dilution, 5×10^5 CFU/mL",<0.06 µg/mL
same,MIC Streptococcus pneumoniae (GC 1894),"Streptococcus sp.; broth dilution, 5×10^5 CFU/mL",<0.06 µg/mL
same,MIC Streptococcus pneumoniae (GC 4565),"Streptococcus sp.; broth dilution, 5×10^5 CFU/mL",<0.06 µg/mL
same,MIC Streptococcus pneumonine (ATCC 6301),"Streptococcus sp.; broth dilution, 5×10^5 CFU/mL",<0.06 µg/mL
same,MIC Streptococcus pyogenes (GC 4563),"Streptococcus sp.; broth dilution, 5×10^5 CFU/mL",<0.06 µg/mL

# — patent US8247211B2, “Glycopeptide antibiotics” (American Cyanamid Company, priority 2001, dated 2012)
